# Data: patent US12472201B2, “Complexing agent salt formulations of pharmaceutical compounds” (Bexson Biomedical, Inc., priority 2020, dated 2025)
# “And” between values parts separate entries of the source, which are not always exact repeats. Equal values may be shown once. Where a name gives a salt, the structure may show the parent alone. Marks after values point to notes of the source that are not given here.
# Columns and labels:
# [1] = Osmolality of ketamine HCl and ketamine-Captisol complexes; assay type: physicochemical; settings: for Mean Osmolality: each sample run in triplicate
# Protocol: Osmolality. Osmolality readings were obtained on an Advanced Instruments Advanced™ Micro Osmometer Model 3300 (Advanced Instruments, Inc. Norwood, MA, USA). Saline solutions (0.9% and 3%) were freshly prepared with sodium chloride (Fisher Scientific, Fair Lawn, NJ) and run as positive controls. Each sample was calculated as the mean from back-to-back triplicate measurements.
# [2] = Forced precipitation of racemic ketamine with 2M NaOH; assay type: physicochemical; settings: 70 mg/mL ketamine FB equiv., 2 mL volume, 2M NaOH after pH 5.5 in 1-2 μL volumes
# Protocol: The tests were conducted on a 2 mL volume. Base was added in 1-2 μL volumes.
# [3] = Forced precipitation of API HCl salt and API FB-CapAcid formulation with 2M NaOH; assay type: physicochemical; settings: 70 mg/mL API in FB equivalents, 1 mL scale, 1 μL increments of 2M NaOH, starting pH 7.0±0.1
# [4] = Theoretical vs measured osmolarities of API-Cap formulations; assay type: physicochemical; settings: API-Cap Formulations at 70 mg/mL freebase equivalents; for Percentage of Theoretical: measured osmolality vs calculated osmolarity
# [5] = Final pH and average osmolality of API Captisol formulations and API salt solutions
# [6] = Solubility of DMT, 5-MeO-DMT and Mescaline in Captisol sodium solution; assay type: physicochemical; settings: equimolar Captisol Sodium form in water; for Appearance after filtration / Osmolality / pH: agitated overnight; for Amine Conc.: total 10 g, agitated at room temperature overnight, after filtration
# Protocol: An equimolar amount of Captisol Sodium form and 5 mL HPLC grade water were added to three 20 mL vials equipped with stir bars. Once a solution was formed, 638 mg of DMT, 700 mg of 5-MeO-DMT, and 700 mg of Mescaline were added to each vial. Each solution was diluted with water to a total solution weight of 10 g. The mixtures were agitated at room temperature overnight and analyzed.
# physchem = settings: water, thermodynamic from solid
# [7] = API HCl salt (70 mg/mL in FB equiv)
# [8] = CapAcid-API Freebase Formulation (70 mg/mL API FB, 1.1 molar equiv CapAcid)
# [9] = Captisol-API HCl salt formulation (70 mg/mL API HCl salt in FB equiv, 1.1 molar equiv Captisol in CapAcid equiv)
# [10] = Captisol salt formulation with DXM HBr 15 mg/mL FB equiv
# [11] = salt solution, DXM HBr 15 mg/mL FB equiv
# [12] = salt solution, 5-IAI HCl 35 mg/mL FB equiv
# [13] = Captisol salt formulation with nicotine Stoichiometric Fumarate salt, 70 mg/mL FB equiv
# [14] = salt solution, nicotine Stoichiometric Fumarate salt, 70 mg/mL FB equiv
# [15] = Captisol salt formulation with Sumatriptan stoichiometric succinate salt, 70 mg/mL FB equiv
# [16] = salt solution, Sumatriptan stoichiometric succinate salt, 70 mg/mL FB equiv
Compound,Measured Osmolality [4],"Osmolality [5, 7]","pH [5, 7]","Osmolality [5, 8]","pH [5, 8]","Osmolality [5, 9]","pH [5, 9]",also measured
CNC1(c2ccccc2Cl)CCCCC1=O (racemic) [Ketamine HCl],,,,,,,,"Mean Osmolality ([1]; 75 mg/mL): 533.3 mOsm; Mean Osmolality ([1]; 100 mg/mL): 703.0 mOsm; Average osmolality ± SEM ([1]; [Ketamine] 70 mg/mL FB equiv., HCl): 527 ± 2.69 mOsm/kg and 527.0 ± 2.7 mOsm/kg; Average osmolality ± SEM ([1]; [Ketamine] 96 mg/mL FB equiv., HCl): 704.4 ± 9.95 mOsm/kg and 704.4 ± 9.9 mOsm/kg; Average osmolality ± SEM ([1]; [Ketamine] 100 mg/mL FB equiv.): 736.83 ± 3.7 mOsm/kg; Mean Volume Base to precip ± SEM [2]: 4 ± 0 µL"
CNC(C)Cc1cccc(F)c1.Cl (stereo not shown) [3-FMA HCl],,,,,,,,Volume of Base need for Precipitation [3]: 37 µL
CNC(C)Cc1ccc2occc2c1.Cl (stereo not shown) [5-MAPB HCl],,,,,,,,Volume of Base need for Precipitation [3]: 47* μL
"CNC1(c2ccccc2)CCCCC1=O (stereo not shown) [DCK, 2-(methylamino)-2-phenylcyclohexan-1-one]",310 mOsmol/L,601 mOsm/kg,4.73,310 mOsm/kg,7.00,"1,086 mOsm/kg",6.98,Percentage of Theoretical [4]: 77.1%
"CN(C)CCc1c[nH]c2ccccc12 [DMT, N,N-Dimethyltryptamine]",,,,,,,,Appearance after filtration [6]: Clear/colorless; Osmolality [6]: 300 mOsm/kg; pH [6]: 11.10; Amine Conc. [6]: 13.6 mg/mi
"COc1ccc2c(c1)[C@]13CCCC[C@@H]1[C@H](C2)N(C)CC3 [DXM HBr hydrate, dextromethorphan HBr hydrate]",,,,,,,,solubility at 48 h (physchem): 16.4 mg/mL
"COc1ccc2c(c1)[C@]13CCCC[C@@H]1[C@H](C2)N(C)CC3 [DXM, dextromethorphan, reference compound]",113 mOsmol/L,,,113 mOsm/kg,6.95,,,"Osmolality [5, 10]: 145* mOsm/kg; pH [5, 10]: 7.05; Osmolality [5, 11]: 91 mOsm/kg; pH [5, 11]: 5.47"
"CNC1(c2ccccc2F)CCCCC1=O (stereo not shown) [Example 2-F-DCK, 2-(2-fluorophenyl)-2-(methylamino)cyclohexan-1-one]",373 mOsmol/L,560 mOsm/kg,4.27,373 mOsm/kg,6.97,"1,046 mOsm/kg",,Percentage of Theoretical [4]: 100.9%
"CNC(C)Cc1cccc(F)c1 (stereo not shown) [Example 3-FMA, 1-(3-fluorophenyl)-N-methylpropan-2-amine]",337 mOsmol/L,706 mOsm/kg,5.17,337 mOsm/kg,6.78,"1,388 mOsm/kg",7.01,
"CNC(C)C(=O)c1cccc(C)c1 (stereo not shown) [Example 3-MMC, 2-(methylamino)-1-(m-tolyl)propan-1-one]",312 mOsmol/L,636 mOsm/kg,4.76,312 mOsm/kg,6.99,"1,190* mOsm/kg",6.98,
"NC1Cc2ccc(I)cc2C1 (stereo not shown) [Example 5-IAI, 5-iodo-2,3-dihydro-JH-inden-2-amine]",119 mOsmol/L,,,119 mOsm/kg,6.97,621 mOsm/kg,6.98,"Osmolality [5, 12]: 221 mOsm/kg; pH [5, 12]: 4.62"
"CNC(C)Cc1ccc2occc2c1 (stereo not shown) [Example 5-MAPB, 1-(benzofuran-5-yl)-N-methylpropan-2-amine]",215 mOsmol/L,556 mOsm/kg,3.16,215 mOsm/kg,7.10,"1,004 mOsm/kg",7.15,
"COc1ccc2[nH]cc(CCN(C)C)c2c1 [Example 5-MeO-DMT, 5-methoxy-N,N-dimethyltryptamine]",,,,,,,,Appearance after filtration [6]: Clear/faint yellow; Osmolality [6]: 316 mOsm/kg; pH [6]: 11.03; Amine Conc. [6]: 14.6 mg/mi
CNC1(c2ccccc2Cl)CCCCC1=O (stereo not shown) [Ketamine],291 mOsmol/L,,,,,,,Percentage of Theoretical [4]: 84.6%
"CCN(CC)CC(=O)Nc1c(C)cccc1C [Lidocaine HCl, reference compound]",,,,,,,,Volume of Base need for Precipitation [3]: 5 µL
"CCN(CC)CC(=O)Nc1c(C)cccc1C [Lidocaine, reference compound]",304 mOsmol/L,543 mOsm/kg,4.60,304 mOsm/kg,6.99,844 mOsm/kg,6.95,Percentage of Theoretical [4]: 87.0%
"Cc1cccc(C(=O)C(C)N(C)C)c1.Cl (stereo not shown) [Me-3-MMC HCl, Me-3-MMC hydrochloride]",,,,,,,,Volume of Base need for Precipitation [3]: 6.5* μL
"Cc1cccc(C(=O)C(C)N(C)C)c1 (stereo not shown) [Me-3-MMC, 2-(dimethylamino)-1-(m-tolyl)propan-1-one]",321 mOsmol/L,578 mOsm/kg,4.44,321 mOsm/kg,6.95,"1,151 mOsm/kg",7.00,
COc1cc(CCN)cc(OC)c1OC [Mescaline],,,,,,,,Appearance after filtration [6]: Clear/light yellow; Osmolality [6]: 570 mOsm/kg; pH [6]: 11.69; Amine Conc. [6]: 77.7 mg/mi
"CN1CC[C@]23c4c5ccc(O)c4O[C@H]2[C@@H](O)C=C[C@H]3[C@H]1C5 [Morphine, reference compound]",166 mOsmol/L,,,166 mOsm/kg,6.09,,,Percentage of Theoretical [4]: 57.9%
"CN1CCC[C@H]1c1cccnc1 [Nicotine, S-(−)-nicotine, reference compound]",555 mOsmol/L,,,555* mOsm/kg,7.02*,,,"Percentage of Theoretical [4]: 110.1%; Osmolality [5, 13]: 2,006 mOsm/kg; pH [5, 13]: 6.97; Osmolality [5, 14]: 682 mOsm/kg; pH [5, 14]: 3.80"
"CNS(=O)(=O)Cc1ccc2[nH]cc(CCN(C)C)c2c1 [Sumatriptan, 1-(3-(2-(dimethylamino)ethyl)-1H-indol-5-yl)-N-methylmethanesulfonamide, reference compound]",109 mOsmol/L,,,109 mOsm/kg,7.06,,,"Osmolality [5, 15]: 858 mOsm/kg; pH [5, 15]: 6.99; Osmolality [5, 16]: 293 mOsm/kg; pH [5, 16]: 4.57"
